Source: patent US6297242A, “N-substituted amidine and guanidine oxazolidinone antibacterials and methods of use thereof” (Ortho-McNeil Pharmaceutical, Inc., priority 2000, dated 2001)
Values after ≈ are worked out from the molar mass of the structure shown.

Assays:
[1] = test system: MRSA OC2878; assay: NCCLS broth microdilution MIC, MRSA OC2878; format: cell-based, methicillin-resistant Staphylococcus aureus; settings: Staphylococcus aureus, cation adjusted Mueller-Hinton broth, 35° C., 16-20 hours
Experimental: (§1) Minimal inhibitory concentration (MIC) has been an indicator of in vitro antibacterial activity widely used in the art. The in vitro antimicrobial activity of the compounds was determined by the microdilution broth method following the test method from the National Committee for Laboratory Standards (NCCLS). This method is described in the NCCLS Document M7-A4, Vol.17, No.2, "Methods for Dilution Antimicrobial Susceptibility Test for Bacteria that Grow Aerobically-Fourth Edition", which is incorporated herein by reference.
(§2) In this method two-fold serial dilutions of drug in cation adjusted Mueller-Hinton broth are added to wells in microdilution trays. The test organisms are prepared by adjusting the turbidity of actively growing broth cultures so that the final concentration of test organism after it is added to the wells is approximately 5×10^4 CFU/well.
(§3) Following inoculation of the microdilution trays, the trays are incubated at 35° C. for 16-20 hours and then read. […] The amount of growth in the wells containing the test compound is compared with the amount of growth in the growth-control wells (no test compound) used in each tray. As set forth in Table 1, compounds of the present invention were tested against a variety of Gram positive and Gram negative pathogenic bacteria resulting in a range of activities, from 1 to ≥128 μg/mL depending on the organism tested.

[2] = test system: E. faecium OC3312; assay: NCCLS broth microdilution MIC, E. faecium OC3312; format: cell-based; settings: Enterococcus faecium, cation adjusted Mueller-Hinton broth, 35° C., 16-20 hours
Experimental: as §1, §2, §3

[3] = test system: S. aureus OC4172; assay: NCCLS broth microdilution MIC, S. aureus OC4172; format: cell-based; settings: Staphylococcus aureus, cation adjusted Mueller-Hinton broth, 35° C., 16-20 hours
Experimental: as §1, §2, §3

Structure (SMILES): CC(=O)N=C(C)NC[C@H]1CN(c2ccc(N3CCOCC3)c(F)c2)C(=O)O1 [Cmpd 7, N-Acetyl-N'-[[(5S)-3-[3-fluoro-4-(4-morpholinyl)phenyl]-2-oxo-5-oxazolidinyl]methyl]acetimidate]
- MIC [1]: 16 µg/mL (≈ 42.3 µM)
- MIC [2]: 64 µg/mL (≈ 169 µM)
- MIC [3]: 32 µg/mL (≈ 84.6 µM)

Structure (SMILES): CCCC(=NC#N)NC[C@H]1CN(c2ccc(N3CCOCC3)c(F)c2)C(=O)O1 [Cmpd 5, N-Cyano-N'-[[(5S)-3-[3-fluoro-4-(4-morpholinyl)phenyl]-2-oxo-5-oxazolidinyl]methyl]butyrimidate]
- MIC [1]: 8 µg/mL (≈ 20.5 µM)
- MIC [2]: 8 µg/mL (≈ 20.5 µM)
- MIC [3]: 8 µg/mL (≈ 20.5 µM)

Structure (SMILES): CC(=NC[C@H]1CN(c2ccc(N3CCOCC3)c(F)c2)C(=O)O1)NC#N [Cmpd 2, N-Cyano-N'-[[(5S)-3-[3-fluoro-4-(4-morpholinyl)phenyl]-2-oxo-5-oxazolidinyl]methyl]ethanimidamide]
- MIC [1]: 1 µg/mL (≈ 2.77 µM)
- MIC [2]: 2 µg/mL (≈ 5.53 µM)
- MIC [3]: 2 µg/mL (≈ 5.53 µM)

Structure (SMILES): CN=C(NC#N)NC[C@H]1CN(c2ccc(N3CCOCC3)c(F)c2)C(=O)O1 [Cmpd 1, N-Cyano-N'-[[(5S)-3-[3-fluoro-4-(4-morpholinyl)phenyl]-2-oxo-5-oxazolidinyl]methyl]-N"-methylguanidine]
- MIC [1]: 32 µg/mL (≈ 85 µM)
- MIC [2]: 32 µg/mL (≈ 85 µM)
- MIC [3]: 16 µg/mL (≈ 42.5 µM)

Structure (SMILES): CC(=N)NC[C@H]1CN(c2ccc(N3CCOCC3)c(F)c2)C(=O)O1 [Cmpd 6]
- MIC [1]: 128 µg/mL (≈ 381 µM)
- MIC [2]: > 128 µg/mL
- MIC [3]: > 128 µg/mL

Structure (SMILES): CSC(=NC#N)NCC1CN(c2ccc(N3CCOCC3)c(F)c2)C(=O)O1 (stereo in doubt) [Cmpd 3, N-Cyano-N'-[[(5S)-3-[3-fluoro-4-(4-morpholinyl)phenyl]-2-oxo-5-oxazolidinyl]methyl]carbamimidothioic acid, methyl ester]
- MIC [1]: 4 µg/mL (≈ 10.2 µM)
- MIC [2]: 8 µg/mL (≈ 20.3 µM)
- MIC [3]: 4 µg/mL (≈ 10.2 µM)

Structure (SMILES): CN(C)C(=NC#N)NC[C@H]1CN(c2ccc(N3CCOCC3)c(F)c2)C(=O)O1 [Cmpd 4, N-Cyano-N'-[[(5S)-3-[3-fluoro-4-(4-morpholinyl)phenyl]-2-oxo-5-oxazolidinyl]methyl]-N", N"-dimethylguanidine]
- MIC [1]: 32 µg/mL (≈ 82 µM)
- MIC [2]: 64 µg/mL (≈ 164 µM)
- MIC [3]: 16 µg/mL (≈ 41 µM)
